Entries after “also recorded” stand apart in the source; their conditions may differ.
Test system: ischemia/reperfusion induced kidney injury
Assay: rat model of ischemia/reperfusion induced kidney injury
Assay type: in vivo
Details: Sprague Dawley rats after ischemic renal injury (45 min bilateral renal pedicle occlusion), veliparib 25 mg/kg BID PO
Description: Acute kidney injury (AKI) is a clinical condition characterized by a rapid decline in kidney function and is often associated with high morbidity and mortality. The precise etiology of ischemia/reperfusion (I/R)-induced AKI is yet not fully understood and is thought to involve multiple factors. The prevention of acute kidney injury and its progression represents a great challenge particularly in renal transplanted patients. Therefore, animal models of renal ischemia/reperfusion (I/R) are important to understand pathophysiology and potential treatment strategies for AKI. The present study evaluated the efficacy of a test compound, namely veliparib (shown below),
[drawing 8] in a rat model of ischemia/reperfusion induced kidney injury.
Species: Rattus norvegicus
3. Experimental Plan • i. All animals were numbered and kept in acclimatization for a period of 5-7 days, with 2 days acclimatization on metabolic cages before, initiation of the experiment. • ii. Animals were randomized into different treatment groups based on their body weight and assigned a permanent number. • iii. Body weight measurements were made once at randomization, also daily just prior to compound dosing and prior to termination. All body weights were recorded. • iv. Treatment with test compound(s) varied based on dose group (see table) that follows different dosing paradigms. The time of each dose administration was recorded. • 1. The dosing schedule for groups 1 and 2 was as follows: a 5 mL/kg BID dose with vehicle starting Day −1 through Day 2 with the final dose on Day 3 occurring 2 hours prior to takedown. • 2. The dosing schedule for group 3 with veliparib was 25 mg/kg BID starting on Day −1. […] After 45 min, the clips were removed, reperfusion was monitored (change in kidney color) for 1-2 min and the surgical sites were sutured. […] Postsurgical care and recovery: Animals were monitored until recovery from anesthesia and returned to their metabolic cage. […] For the 6 hour collection, urine volume was measured and recorded (to the nearest 1.0 mL) and samples were clarified by centrifugation (3000 rpm for 10 minutes). […]

Compound: C[C@]1(c2nc3c(C(N)=O)cccc3[nH]2)CCCN1 [veliparib]
- induced increases in blood urea nitrogen (BUN) (FIG. 2A/2B): attenuates
- induced increases in plasma creatinine levels (FIG. 2A/2B): attenuates
- fractional excretion of sodium (a measurement of tubular injury) (FIG. 3): improves; also recorded: attenuates
